Results reported in US12594276B2, “Inhibitors of human immunodeficiency virus replication” (ViiV Healthcare UK (No.5) Limited, priority 2024, dated 2026).
pEC50: −log10 of the molar value. Where two headings read alike, the source gives them in different places.

What was measured:
[1] = Compound cytotoxicity, XTT-based colorimetric assay; type: cell-based; conditions: human
Summary of the method: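 Follows the antiviral assay procedure, but with uninfected MT2 cells. On day 4, cell viability is measured by XTT-based colorimetry, giving CC50 values.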

[2] = test system: recombinant NL4-3 virus (nef section replaced with Renilla luciferase gene) in MT-2 cells; test: HIV cell culture assay (antiviral activity, luciferase readout); type: cell-based; conditions: Renilla, NL43, MT-2 cells infected for 4-5 days with recombinant NL4-3 Renilla luciferase virus
Summary of the method: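 The reporter virus was produced by transfecting 293T cells with the NL4-3 nef/Renilla luciferase proviral clone. MT-2 cells were infected for 4–5 days with serial compound dilutions present. Luciferase was read with a live-cell substrate, and EC50 came from the exponential median-effect equation.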

[3] = uninfected MT2 cells, day 4, XTT, read-out: CC50

Structure (SMILES)	CC50 at 4 days [1, 3]	pEC50 [2]	CC50 at 4 days [1]
CS(=O)(=O)Nc1nn(CCN2CC[C@@H](F)C2)c2c(-n3c([C@H](Cc4cc(F)cc(F)c4)NC(=O)Cn4nc(C(F)F)c5c4C(F)(F)[C@@H]4C[C@H]54)nc4nc(C5CCC(F)(F)CC5)ccc4c3=O)ccc(Cl)c12 (atropisomer, axis not shown; (P)) [Example 208, N-[(1S)-1-[(3P)-3-(4-chloro-1-{2-[(3R)-3-fluoropyrrolidin-1-yl]ethyl}-3-methanesulfonamido-1H-indazol-7-yl)-7-(4,4-difluorocyclohexyl)-4-oxo-3H,4H-pyrido[2,3-d]pyrimidin-2-yl]-2-(3,5-difluorophenyl)ethyl]-2-[(2S,4R)-9-(difluoromethyl)-5,5-difluoro-7,8-diazatricyclo[4.3.0.0^2,^4]nona-1(6),8-dien-7-yl]acetamide]	> 50 nM	11.05	
COCCCn1nc(NS(C)(=O)=O)c2c(Cl)ccc(-n3c([C@H](Cc4cc(F)cc(F)c4)NC(=O)Cn4nc(C(F)F)c5c4C(F)(F)[C@@H]4C[C@H]54)nc4nc(C5CCC(F)(F)CC5)cc(NCCN5C[C@H](F)C[C@H](F)C5)c4c3=O)c21 (atropisomer, axis not shown; (P)) [Example 509, N-[(1S)-1-[(3P)-3-[4-chloro-3-methanesulfonamido-1-(3-methoxypropyl)-1H-indazol-7-yl]-7-(4,4-difluorocyclohexyl)-5-({2-[(3R,5S)-3,5-difluoropiperidin-1-yl]ethyl}amino)-4-oxo-3H,4H-pyrido[2,3-d]pyrimidin-2-yl]-2-(3,5-difluorophenyl)ethyl]-2-[(2S,4R)-9-(difluoromethyl)-5,5-difluoro-7,8-diazatricyclo[4.3.0.0^2,^4]nona-1(6),8-dien-7-yl]acetamide]	> 20 nM	11.22	
Cc1cc(C2CCC(F)(F)CC2)nc2nc([C@H](Cc3cc(F)cc(F)c3)NC(=O)Cn3nc(C4CC4)c4c3C[C@@H]3C[C@H]43)n(-c3ccc(Cl)c4c(NS(C)(=O)=O)nn(CCN5C[C@H]6C[C@@H](C5)O6)c34)c(=O)c12 (atropisomer, axis not shown; (P)) [Example 7, N-[(1S)-1-[(3P)-3-(4-chloro-3-methanesulfonamido-1-{2-[(1R,5S)-6-oxa-3-azabicyclo[3.1.1]heptan-3-yl]ethyl}-1H-indazol-7-yl)-7-(4,4-difluorocyclohexyl)-5-methyl-4-oxo-3H,4H-pyrido[2,3-d]pyrimidin-2-yl]-2-(3,5-difluorophenyl)ethyl]-2-[(2S,4S)-9-cyclopropyl-7,8-diazatricyclo[4.3.0.0^2,^4]nona-1(6),8-dien-7-yl]acetamide]		11.05	> 50 nM
Cc1cc(C2CCC(F)(F)CC2)nc2nc([C@H](Cc3cc(F)cc(F)c3)NC(=O)Cn3nc(C(F)F)c4c3C(F)(F)[C@@H]3C[C@H]43)n(-c3ccc(Cl)c4c(NS(C)(=O)=O)nn(CCN5CCC(F)(F)C5)c34)c(=O)c12 (atropisomer, axis not shown; (P)) [Example 231, N-[(1S)-1-[(3P)-3-{4-chloro-1-[2-(3,3-difluoropyrrolidin-1-yl)ethyl]-3-methanesulfonamido-1H-indazol-7-yl}-7-(4,4-difluorocyclohexyl)-5-methyl-4-oxo-3H,4H-pyrido[2,3-d]pyrimidin-2-yl]-2-(3,5-difluorophenyl)ethyl]-2-[(2S,4R)-9-(difluoromethyl)-5,5-difluoro-7,8-diazatricyclo[4.3.0.0^2,^4]nona-1(6),8-dien-7-yl]acetamide]	> 50 nM	11.00	
Cc1cc(C2CCC(F)(F)CC2)nc2nc([C@H](Cc3cc(F)cc(F)c3)NC(=O)Cn3nc(C(F)(F)F)c4c3C(F)(F)[C@@H]3C[C@H]43)n(-c3ccc(Cl)c4c(NS(C)(=O)=O)nn(CCN5CCOCC5)c34)c(=O)c12 (atropisomer, axis not shown; (P)) [Example 116, N-[(1S)-1-[(3P)-3-{4-chloro-3-methanesulfonamido-1-[2-(morpholin-4-yl)ethyl]-1H-indazol-7-yl}-7-(4,4-difluorocyclohexyl)-5-methyl-4-oxo-3H,4H-pyrido[2,3-d]pyrimidin-2-yl]-2-(3,5-difluorophenyl)ethyl]-2-[(2S,4R)-5,5-difluoro-9-(trifluoromethyl)-7,8-diazatricyclo[4.3.0.0^2,^4]nona-1(6),8-dien-7-yl]acetamide]	> 50 nM	10.92	
Cc1cc(C2CCC(F)(F)CC2)nc2nc([C@H](Cc3cc(F)cc(F)c3)NC(=O)Cn3nc(C4CC4)c4c3C[C@@H]3C[C@H]43)n(-c3ccc(Cl)c4c(NS(C)(=O)=O)nn(CCN5CCOCC5)c34)c(=O)c12 (atropisomer, axis not shown; (P)) [Example 114, N-[(1S)-1-[(3P)-3-{4-chloro-3-methanesulfonamido-1-[2-(morpholin-4-yl)ethyl]-1H-indazol-7-yl}-7-(4,4-difluorocyclohexyl)-5-methyl-4-oxo-3H,4H-pyrido[2,3-d]pyrimidin-2-yl]-2-(3,5-difluorophenyl)ethyl]-2-[(2S,4S)-9-cyclopropyl-7,8-diazatricyclo[4.3.0.0^2,^4]nona-1(6),8-dien-7-yl]acetamide]	> 50 nM	10.89	
CS(=O)(=O)Nc1nn(CCN2[C@@H]3CC[C@H]2COC3)c2c(-n3c([C@H](Cc4cc(F)cc(F)c4)NC(=O)Cn4nc(C5CC5)c5c4C[C@@H]4C[C@H]54)nc4nc(C5CCC(F)(F)CC5)cc(C(F)F)c4c3=O)ccc(Cl)c12 (atropisomer, axis not shown; (P)) [Example 289, N-[(1S)-1-[(3P)-3-(4-chloro-3-methanesulfonamido-1-{2-[(1R,5S)-3-oxa-8-azabicyclo[3.2.1]octan-8-yl]ethyl}-1H-indazol-7-yl)-7-(4,4-difluorocyclohexyl)-5-(difluoromethyl)-4-oxo-3H,4H-pyrido[2,3-d]pyrimidin-2-yl]-2-(3,5-difluorophenyl)ethyl]-2-[(2S,4S)-9-cyclopropyl-7,8-diazatricyclo[4.3.0.0^2,^4]nona-1(6),8-dien-7-yl]acetamide]		10.60	> 50 nM
CS(=O)(=O)Nc1nn(CCN2CCC(F)(F)C2)c2c(-n3c([C@H](Cc4cc(F)cc(F)c4)NC(=O)Cn4nc(C(F)F)c5c4C(F)(F)[C@@H]4C[C@H]54)nc4nc(C5CCC(F)(F)CC5)cc(C5CC5)c4c3=O)ccc(Cl)c12 (atropisomer, axis not shown; (P)) [Example 354, N-[(1S)-1-[(3P)-3-{4-chloro-1-[2-(3,3-difluoropyrrolidin-1-yl)ethyl]-3-methanesulfonamido-1H-indazol-7-yl}-5-cyclopropyl-7-(4,4-difluorocyclohexyl)-4-oxo-3H,4H-pyrido[2,3-d]pyrimidin-2-yl]-2-(3,5-difluorophenyl)ethyl]-2-[(2S,4R)-9-(difluoromethyl)-5,5-difluoro-7,8-diazatricyclo[4.3.0.0^2,^4]nona-1(6),8-dien-7-yl]acetamide]	> 50 nM	10.66	
